Experimental data: publication PMC12345137 (mBio, 2025)
Like-named read-outs stand apart in the source and are kept apart here. Positions of bridges follow the written chain, without caps; N, C: chain ends. Residues, ends and D or L forms follow the SMILES beside them.

How the values were obtained:
[1] = molecular target: S. epidermidis agr-I (Staphylococcus epidermidis, UniProt Q5HMY3); assay: cell-based; type: cell-based; settings: for QS interaction in words (inhibition / activation), S. epidermidis agr-I: fluorescent reporter strain, peptides tested at 1000, 50, 2.5, 0.125 nM or in dose-response
Procedure: Peptides were evaluated for the ability to interfere with agr-mediated quorum sensing in S. aureus (AH1677, AH430, AH1747, and AH1872 for agr-I–IV, respectively) ([40]) using reporter strains expressing yellow fluorescent protein (YFP) upon agr activation. Interference with agr-mediated quorum sensing in S. epidermidis (AH3408, AH3623, and AH3409 for agr-I–III, respectively) ([45]), and S. lugdunensis (AH4031 for agr-I) ([37]) was evaluated using reporter strains expressing superfolder green fluorescent protein (sGFP) upon agr activation. Overnight cultures of the reporter strains were grown in TSB medium containing chloramphenicol (CAM, 10 μg/mL for S. aureus) or erythromycin (ERM, 10 μg/mL of S. epidermidis and S. lugdunensis) and diluted 1:100 in fresh TSB medium containing the same antibiotic. Assays were performed in sterile black 96-well plates with a clear bottom. […] DMSO stock solutions of peptides (1 mM) were diluted in TSB media and added (15 μL) in technical triplicate to the 96-well plate, followed by diluted bacterial overnight cultures (135 μL). […] Wells containing 150 μL TSB medium were used to measure background fluorescence. The 96-well plates were incubated in a humidified incubator at 37°C shaking at 1,000 rpm for 22–24 h and fluorescence (for GFP: excitation 479 nm, emission 520 nm; for YFP: excitation 500 nm, emission 541 nm; automatic gain), and OD600 values were subsequently measured using a plate reader. Background fluorescence was subtracted from all wells and further normalized to the corresponding OD600 value of the respective wells. The average fluorescence of control wells was used as a relative measure for 100% activation of the agr-circuit, and bar graphs were generated using GraphPad Prism 10.4 software. All assays were performed in at least a biological duplicate.
Overnight cultures of the reporter strains were grown in TSB medium containing chloramphenicol (CAM, 10 μg/mL for S. aureus) or erythromycin (ERM, 10 μg/mL of S. epidermidis and S. lugdunensis) and diluted 1:100 in fresh TSB medium containing the same antibiotic. Assays were performed in sterile black 96-well plates with clear bottoms. Peptide solutions (15 μL) in 1:5 serial dilutions from DMSO stock solutions (1 mM) in TSB medium were added to the 96-well plate in technical duplicate followed by diluted bacterial overnight cultures (135 μL). […] Wells containing 150 μL TSB medium were used to measure background fluorescence. The 96-well plates were incubated in a humidified incubator at 37°C shaking at 1,000 rpm for 22–24 h and fluorescence (for GFP: excitation 479 nm, emission 520 nm; for YFP: excitation 500 nm, emission 541 nm; automatic gain), and OD600 values were subsequently measured using a plate reader. Background fluorescence was subtracted from all wells and further normalized to the corresponding OD600 value of the respective wells. The average fluorescence of control wells was used as a relative measure for 100% activation of the agr-circuit. Relative agr activity was plotted to obtain IC50 values by non-linear regression with variable slope using GraphPad Prism 10.4 software. All assays were performed in biological triplicate.

[2] = tested on: S. aureus (SA) agr-II; design: method as in ref (5) (a number printed in a supplementary file, which may have a reference list of its own: not looked up in the article's list); settings: hemolysis; ref (5); cited from earlier work
[3] = molecular target: SA AgrC-II (Staphylococcus aureus, UniProt O33587)
[4] = molecular target: SA AgrC-III (Staphylococcus aureus, UniProt O33590); settings: 100 nM cognate AIP, ± SEM, determined previously, ref (1), cited from earlier work
[5] = tested on: S. aureus (SA) agr-II; settings: fluorescence, cited from earlier work
[6] = tested on: S. aureus (SA) agr-IV; settings: fluorescence, cited from earlier work
[7] = tested on: S. aureus (SA) agr-I; settings: fluorescence, cited from earlier work
[8] = molecular target: SA AgrC-I (Staphylococcus aureus, UniProt O07911); assay: β-Lactamase assay, reporter strain RN10829 (P2-agrA:P3-blaZ) with pagrC-I; type: cell-based
Outline: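 S. aureus RN10829 (P2-agrA:P3-blaZ) expressing AgrC-I from plasmid, grown in TSB to OD600 0.35–0.40, treated with peptides (10 μM–10 pM) plus cognate AIP (100 nM) for 1 h at 37°C, 200 rpm.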

[9] = 100 nM cognate AIP; ± SEM; -b = no inhibition recorded at the highest AIP concentration tested; determined previously; ref (1); read-out: IC50, SA AgrC-II, b-lactamase assay; cited from earlier work

Chain of SA AgrC-III (O33590 entry or part of it): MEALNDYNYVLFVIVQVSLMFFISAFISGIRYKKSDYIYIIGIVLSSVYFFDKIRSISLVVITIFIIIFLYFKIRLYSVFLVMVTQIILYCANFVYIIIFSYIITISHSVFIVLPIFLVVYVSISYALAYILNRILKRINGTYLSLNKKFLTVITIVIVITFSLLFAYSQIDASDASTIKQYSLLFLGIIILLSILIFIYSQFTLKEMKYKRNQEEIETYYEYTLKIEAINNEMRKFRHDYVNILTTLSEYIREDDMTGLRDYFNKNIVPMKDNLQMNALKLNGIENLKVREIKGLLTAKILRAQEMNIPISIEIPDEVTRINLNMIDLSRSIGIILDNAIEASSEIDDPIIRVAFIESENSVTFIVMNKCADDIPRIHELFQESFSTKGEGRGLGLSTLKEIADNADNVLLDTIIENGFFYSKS
Chain of SA AgrC-II (O33587 entry or part of it): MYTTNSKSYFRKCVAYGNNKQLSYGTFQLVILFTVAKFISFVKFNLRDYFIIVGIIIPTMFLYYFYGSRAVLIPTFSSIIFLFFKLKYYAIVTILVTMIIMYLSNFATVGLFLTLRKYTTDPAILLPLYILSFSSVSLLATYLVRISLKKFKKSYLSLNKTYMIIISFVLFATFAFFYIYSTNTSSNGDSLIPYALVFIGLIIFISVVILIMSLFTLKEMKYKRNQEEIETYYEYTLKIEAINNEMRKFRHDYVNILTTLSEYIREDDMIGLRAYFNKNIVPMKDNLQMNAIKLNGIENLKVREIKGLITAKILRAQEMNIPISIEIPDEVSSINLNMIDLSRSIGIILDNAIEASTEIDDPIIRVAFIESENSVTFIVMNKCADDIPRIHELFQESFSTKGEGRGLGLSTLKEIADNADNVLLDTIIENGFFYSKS
Chain of S. epidermidis agr-I (Q5HMY3 entry or part of it): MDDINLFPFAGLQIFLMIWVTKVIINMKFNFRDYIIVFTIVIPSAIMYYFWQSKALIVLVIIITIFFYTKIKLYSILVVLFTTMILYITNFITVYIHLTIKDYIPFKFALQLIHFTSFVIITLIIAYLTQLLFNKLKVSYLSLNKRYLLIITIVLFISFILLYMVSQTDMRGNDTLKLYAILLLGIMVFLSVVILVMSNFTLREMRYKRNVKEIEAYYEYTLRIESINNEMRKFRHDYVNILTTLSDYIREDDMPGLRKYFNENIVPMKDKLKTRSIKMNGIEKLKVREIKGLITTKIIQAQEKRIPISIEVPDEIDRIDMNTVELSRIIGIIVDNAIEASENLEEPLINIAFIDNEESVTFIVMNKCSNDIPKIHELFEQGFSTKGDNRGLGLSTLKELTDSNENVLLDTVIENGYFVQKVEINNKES
Chain of SA AgrC-I (O07911 entry or part of it): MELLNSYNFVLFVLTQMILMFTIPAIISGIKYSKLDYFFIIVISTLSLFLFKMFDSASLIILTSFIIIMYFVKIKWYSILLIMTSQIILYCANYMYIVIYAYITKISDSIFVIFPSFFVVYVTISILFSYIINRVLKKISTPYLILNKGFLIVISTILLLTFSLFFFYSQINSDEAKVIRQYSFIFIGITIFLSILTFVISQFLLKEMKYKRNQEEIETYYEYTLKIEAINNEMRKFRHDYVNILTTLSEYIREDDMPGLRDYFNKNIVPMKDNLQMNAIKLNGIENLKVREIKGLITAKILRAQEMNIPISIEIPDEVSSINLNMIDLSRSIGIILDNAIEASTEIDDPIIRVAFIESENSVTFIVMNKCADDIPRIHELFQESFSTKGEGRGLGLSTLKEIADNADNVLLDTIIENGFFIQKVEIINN

Molecule | IC50 [1] [nM] | IC50 [2] [nM] | IC50 [3, 9] [nM] | IC50 ([4]; -b = no inhibition recorded at the highest AIP concentration tested, read-out: IC50, SA AgrC-III, b-lactamase assay) [nM] | IC50 ([5]; ref (5)) [nM] | IC50 ([6]; ref (17)) [nM] | IC50 ([3]; read-out: IC50, SA AgrC-II, b-lactamase assay; 100 nM cognate AIP; ± SEM; -b = no inhibition recorded at the highest AIP concentration tested; determined previously; ref (1); cited from earlier work) [nM] | IC50 ([4]; read-out: IC50, SA AgrC-III, b-lactamase assay, -b = no inhibition recorded at the highest AIP concentration tested) [nM] | IC50 ([5]; ref (17)) [nM] | IC50 ([7]; ref (17)) [nM] | IC50 [8] [nM] | QS interaction in words (inhibition / activation), S. epidermidis agr-I [1] | IC50 ([6]; ref (5)) [nM] | IC50 ([4]; only partial inhibition observed, read-out: IC50, SA AgrC-III, b-lactamase assay, only partial inhibition observed (footnote a)) [nM] | IC50 ([7]; ref (5)) [nM]
CC[C@H](C)[C@@H]1NC(=O)[C@H](Cc2ccccc2)NC(=O)[C@H](CC(=O)O)NC(=O)[C@@H](NC(=O)[C@@H](NC(=O)[C@H](CO)NC(=O)[C@@H](N)Cc2ccc(O)cc2)[C@@H](C)O)CSC(=O)[C@H](CCSC)NC1=O [compound 1, S. aureus AIP-I] (H-YSTCDFIM; thioester 4-C) | > 1000 | 3.34 | 700 ± 165 | 80 ± 11 | 8 | – | – | – | – | – | – | – | – | – | –
CC(C)C[C@@H]1NC(=O)[C@@H](NC(=O)[C@@H]2CCCN2C(=O)[C@H](CC(N)=O)NC(=O)[C@H](Cc2ccc(O)cc2)NC(=O)[C@@H](N)CCCCN)CSC(=O)[C@H](CC(C)C)NC(=O)[C@H](Cc2ccccc2)NC(=O)CNC1=O [compound 32, S. simulans AIP-I] (H-KYNPCLGFL; thioester 5-C; N-terminus assumed) | 0.74 ± 0.01 | – | – | – | – | 23 | 23 ± 2 | 50 ± 11 | 1.1 | 2.2 | – | – | – | – | –
NCCCC[C@H](N)C(=O)N[C@@H](Cc1ccc(O)cc1)C(=O)N[C@@H](Cc1ccc(O)cc1)C(=O)N1CCC[C@H]1C(=O)N[C@H]1CSC(=O)[C@H](Cc2ccccc2)NC(=O)[C@H](Cc2ccc(O)cc2)NC(=O)CNC(=O)[C@H](Cc2c[nH]c3ccccc23)NC1=O [compound 33, S. simulans AIP-II] (H-KYYPCWGYF; thioester 5-C) | 0.31 ± 0.06 | – | – | – | – | 40 | – | – | – | 1.6 | 1.9 ± 0.3 | inhibited | – | – | –
NCCCC[C@H](N)C(=O)N[C@@H](Cc1ccc(O)cc1)C(=O)N[C@@H](CC(N)=O)C(=O)N1CCC[C@H]1C(=O)N[C@H]1CSC(=O)[C@H](Cc2ccccc2)NC(=O)[C@H](Cc2ccc(O)cc2)NC(=O)CNC(=O)[C@H](Cc2c[nH]c3ccccc23)NC1=O [compound 34, S. simulans AIP-III] (H-KYNPCWGYF; thioester 5-C) | 0.14 ± 0.03 | – | – | – | – | 48 | – | – | 6 | 1.7 | 1.6 ± 0.1 | – | – | – | –
S. aureus AIP-III D4A [compound 57, reference compound] | – | 0.06 | 34 ± 1 | – | 0.43 | – | – | – | – | – | – | weak interference | 0.035 | 1.6 ± 0.2 | 0.49
